Read-outs that look alike come from different tables or passages of the source.
T1: Regulator of sigma D from Escherichia coli (Rsd^ec) (E. coli, UniProt P0AFX4 1-158)
T1 construct: Rsd (regulator of sigma D), anti-sigma factor of sigma 70, E. coli; 158-residue-long protein; called 'intact Rsd' in the abstract and 'wild-type Rsd vector' in the methods; Vector was a gift from Ann Hochschild; source: E. coli C41, purified as described [24,50]
T1 sequence (looked up): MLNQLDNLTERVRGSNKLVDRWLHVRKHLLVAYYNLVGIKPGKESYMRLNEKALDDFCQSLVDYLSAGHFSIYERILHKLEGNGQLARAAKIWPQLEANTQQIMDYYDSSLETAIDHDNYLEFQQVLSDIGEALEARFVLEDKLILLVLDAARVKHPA

B1: HPr^sc: intact histidine phosphocarrier protein HPr from Streptomyces coelicolor (O50515) (protein, UniProt O50515 2-93, looked up)
Phosphocarrier protein HPr: AERRVNVGWAEGLHARPASIFVRAATATGVPVTIAKADGSPVNAASMLAVLGLGAQGGEEIVLASDAEGAEAALERLAKLVAEGLEELPETV
B2: HPr^9–30 F22A peptide (peptide)
peptide: Ac-GWAEGLHARPASIAVRAATATG-NH2
notes: HPr of Streptomyces coelicolor, residues 9-30, with F22A; source: synthetic peptide, bought: NZYTech (purity >95%)

Tests used:
[1] = Translational diffusion NMR (DOSY); assay type: physicochemical; settings: for D (translational diffusion coefficient): DOSY, 10 °C, 100% D2O, 70-120 µM peptide, fitting errors, repeated twice; for Rh (in parentheses, from DOSY): from comparison with the Rh of dioxane (2.12 Å)
Description: (b) Translational diffusion NMR (DOSY): Peptide concentrations were the same as those used in the 1D-^1H-NMR spectra. Translational self-diffusion measurements were performed with the pulsed-gradient spin-echo sequence in the presence of 100% D2O. The following relationship existed between the translational self-diffusion coefficient, D, and the delays used during experiment acquisition:(2) I/I0=−exp(DγH2δ^2G^2(Δ−δ/3−τ/2)) where I is the peak intensity of a particular resonance (or a group of them) at any gradient strength; I0 is the maximum peak intensity of the same resonance(s) at the smallest gradient strength (that is, at 2% of the total power of the gradient coil); D is the translational self-diffusion constant (in cm^2 s^−1); δ is the duration (in s) of the gradient; G is the gradient strength (in T cm^−1); ∆ is the time (in s) between the gradients; γH is the gyromagnetic constant of the proton (in rad s^−1 T^−1); and τ is the recovery delay between the bipolar gradients (100 µs in our experiments). The gradient strength (G) was varied in 16 lineal steps, between 2 and 95% of the total power of the gradient coil of the probe. The gradient strength was calibrated by using the value of D for the residual proton water line in a sample containing 100% D2O placed in a 5 mm tube [42]. Data were plotted as I/I0 versus G^2, and the exponential factor of the curve was:(3) DγH2δ^2(Δ−δ/3−τ/2) from which D can be obtained. The duration of the gradient (δ) was 2.25 ms, and the time between the two gradients (∆) was set to 200 ms. The signal from the methyl groups between 1.1 and 0.70 ppm were used for integration of the intensity. A final concentration of 1% of dioxane was added to each peptide; the hydrodynamic radius, Rh, of each peptide was obtained for comparison by assuming that the Rh of dioxane was 2.12 Å [42]. The DOSY experiment was repeated twice with fresh samples for each peptide.

[2] = target: T2, Rsd^ec (Escherichia coli, UniProt P0AFX4); assay: Fluorescence titration, peptide/Rsd^ec binding
T2 construct: His-tag; made in house; host or cells: E. coli C41
Description: (§1) Spectra were collected at 25 °C on a Cary spectrofluorometer (Agilent, Madrid, Spain), with a Peltier temperature controller. The samples were prepared the day before and left overnight at 5 °C. Before measurements, the samples were incubated for 1 h at 25 °C. A quartz cell with a 1 cm path length (Hellma, Kruibeke, Belgium) was used. In all the experiments, the slit widths were equal to 5 nm for both the excitation and emission lights. Protein samples were excited at either 280 or 295 nm. The experiments were performed between 300 and 400 nm. The signal was acquired for 1 s, and the increment of wavelength was set to 1 nm. Appropriate blank corrections were made in all spectra. For the binding experiments, 3 µM of either protein (Rsd^ec or EIN^sc) and 15 µM of the corresponding peptide were mixed. The experiments in aqueous solution were acquired in Tris buffer (50 mM, pH 7.0).
(§2) For the titration between either of the two proteins (Rsd^ec or EIN^sc) and the corresponding peptide, increasing amounts of the latter, in a concentration range of 0 to 30 µM, were added to a solution with a fixed concentration of each protein (3 µM). The experimental set-up was identical to that described above, including preparation of the samples the day before and their storage overnight at 5 °C. Before measurements, the samples were incubated for 1 h at 25 °C. The fluorescence of a blank solution containing only the corresponding peptide was subtracted for each data point. […] The Kd was determined by following the fluorescence at selected wavelengths and fitting experimental data to Equation (1). […] At all used concentrations, the fluorescence was corrected by the inner-filter effects.

[3] = TFE titration followed by far-UV CD (disordered-helical two-state equilibrium); assay type: physicochemical; settings: for [TFE]1/2 / m: TFE titration by far-UV CD, 20 µM peptide, two-state fit, fitting errors; for percentage of helical population (in parentheses): from ∆G^water assuming a two-state conformational equilibrium; for ∆G^water: product of m- and [TFE]1/2 values, error propagation
Description: For experiments in the presence of TFE, the same set of experimental parameters was used. Cosolvent concentrations were indicated in percentage of volume (%). […] The peptide concentration for these experiments was 20 µM.

[4] = Far-UV CD, helicity from molar ellipticity at 222 nm; assay type: physicochemical; settings: 5 °C; for [Θ]^222 (value in parentheses): 50 mM Tris pH 7.0; for Helicity (%): 50 mM Tris pH 7.0, from [Θ]^222 assuming −39,500 deg cm^2 dmol^−1 for a fully formed α-helix
Description: Spectra were collected on a Jasco J810 spectropolarimeter (Jasco, Tokyo, Japan) interfaced with a Peltier unit. Far-UV measurements were performed with samples placed in quartz cells with a 0.1 cm path length (Hellma, Kruibeke, Belgium), with a response time of 2 s, a band width of 1 nm, and a scan velocity of 50 nm/min. For all peptides, a wide range of concentrations (10–50 µM) was used to determine whether either the shape or the intensity of the spectra was concentration-dependent. None of those features changed in the concentration range explored. The experiments in aqueous solution were acquired at 5 °C in Tris buffer (50 mM, pH 7.0). Raw ellipticity was converted to molar ellipticity, [Θ], from which the fraction of helical populations was determined as previously described. For the experiments in the presence of each protein (repeated three times), the same concentration used in the fluorescence experiments was used, and the experimental set-up was the same as described above for the isolated peptides.

[5] = target: T2, Rsd^ec; assay: Isothermal titration calorimetry (ITC), peptide/Rsd^ec binding; settings: for ΔH, Rsd^ec: 50 mM Tris pH 7.0
Description: (§3) The experimental set-up and data processing of ITC experiments has been described previously. Rsd^ec or EIN^sc (at 10–20 µM) were injected into the cell, and the peptides in the syringe (100–200 µM) in 50 mM of Tris buffer, pH 7.0. The temperature for all the experiments was 25 °C. Typically, each calorimetric titration consisted of performing 19 injections with 2 μL volume, with a time spacing of 150 s, while stirring at 750 rpm in an Auto-iTC200 high-sensitivity microcalorimeter (MicroCal, Malvern-Panalytical, Malvern, UK). The results were analysed by applying a model that considered a single binding site (assuming a 1:1 stoichiometry) for the peptide/EIN^sc or peptide/Rsd^ec interaction using a nonlinear least-squares regression analysis in Origin 7.0 (OriginLab, Northampton, MA, USA) with user-defined fitting routines.

[6] = system: Staphylococcus aureus CECT59; assay type: cell-based; settings: S. aureus CECT59, two-fold broth microdilution (CLSI), MH broth, 24 h, 37 °C; triplicate (sd = 0); highest concentration tested 400 µM
Description: The CECT59 strain of the Gram-positive bacteria Staphylococcus aureus from the Spanish Type Culture Collection (Colección Española de Cultivos Tipo, CECT, Universitat de Valencia, Spain) was used for determining its sensitivity to the HPr peptides studied in this work. The MIC for each peptide was determined by the two-fold broth microdilution method according to the Clinical and Laboratory Standards Institute (CLSI) guidelines, with some modifications as previously described. For this testing procedure, a bacteria colony previously grown in MH agar plates was isolated and incubated in MH broth at 37 °C overnight to prepare the bacteria inoculum to be used in each assay. Then, the bacteria suspensions were adjusted to a 100× dilution of an 0.5 McFarland turbidity standard in MH broth and incubated with different concentrations of each peptide in round-bottom 96-well polystyrene plates (Deltalab S.L., Rubí, Spain) (50 μL/well) for 24 h at 37 °C. The peptide concentrations employed comprised two-fold dilutions starting at either 120, 160, or 400 µM, depending on the experiment. […] All assays were performed in triplicate.

[7] = target: EIN^sc (Streptomyces coelicolor, UniProt Q9KZP1); assay: biochemical; assay type: binding
Description: as §1, §2

[8] = target: EIN^sc (N-terminal domain of EI^sc) (Streptomyces coelicolor, UniProt Q9KZP1); assay: biochemical; assay type: binding
Description: as §3

[9] = target: EI (Streptomyces coelicolor) (UniProt Q9KZP1); assay: ITC; settings: cited from earlier work
[10] = target: Rsd (Escherichia coli) (UniProt C5A0T6); assay: ITC; settings: cited from earlier work
[11] = target: EI EIN (Streptomyces coelicolor) (UniProt Q9KZP1); assay: ITC; settings: cited from earlier work
[12] = target: Rsd; parameters: method as in PMID 24324139; settings: SPR; read-out: dissociation constant, Rsd-HPr in E. coli; cited from earlier work
[13] = target: T1, Regulator of sigma D from Escherichia …; assay: other fluorescence titration; peptide 0–30 µM added to 3 µM Rsd^ec or EIN^sc; 50 mM Tris, pH 7.0, 25 °C; samples left overnight at 5 °C; blank of peptide subtracted; settings: both partners purified
[14] = target: T1, Regulator of sigma D from Escherichia …; assay: ITC; Rsd^ec or EIN^sc (10–20 µM) in the cell, peptide (100–200 µM) in the syringe; 50 mM Tris, pH 7.0, 25 °C; single binding-site model, 1:1 stoichiometry assumed; settings: both partners purified

Chain of EIN^sc (N-terminal domain of EI^sc) (Q9KZP1 1-230): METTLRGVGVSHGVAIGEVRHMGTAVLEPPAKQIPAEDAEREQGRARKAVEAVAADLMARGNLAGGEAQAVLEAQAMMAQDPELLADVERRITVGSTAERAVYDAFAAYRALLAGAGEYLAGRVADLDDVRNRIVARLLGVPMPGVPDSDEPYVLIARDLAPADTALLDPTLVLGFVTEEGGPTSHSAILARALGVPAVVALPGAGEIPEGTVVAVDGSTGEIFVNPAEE
Chain of EIN^sc (Q9KZP1 1-230): as above
Chain of EI (Streptomyces coelicolor) (Q9KZP1 whole entry): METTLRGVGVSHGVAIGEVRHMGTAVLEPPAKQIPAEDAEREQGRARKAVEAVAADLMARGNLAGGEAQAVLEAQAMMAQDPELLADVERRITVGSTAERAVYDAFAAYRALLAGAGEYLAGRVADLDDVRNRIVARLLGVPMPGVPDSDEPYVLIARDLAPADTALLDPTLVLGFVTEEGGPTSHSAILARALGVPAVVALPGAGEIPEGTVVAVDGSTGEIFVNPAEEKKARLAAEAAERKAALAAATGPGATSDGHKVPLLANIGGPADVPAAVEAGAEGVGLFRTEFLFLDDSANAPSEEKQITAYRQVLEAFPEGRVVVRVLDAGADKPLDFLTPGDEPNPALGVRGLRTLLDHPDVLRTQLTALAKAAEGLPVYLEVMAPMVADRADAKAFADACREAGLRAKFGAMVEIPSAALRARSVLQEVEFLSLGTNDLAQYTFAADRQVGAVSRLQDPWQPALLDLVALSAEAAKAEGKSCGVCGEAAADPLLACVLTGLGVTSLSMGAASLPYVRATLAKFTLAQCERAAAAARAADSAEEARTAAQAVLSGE
Chain of EI EIN (Streptomyces coelicolor) (Q9KZP1 1-250): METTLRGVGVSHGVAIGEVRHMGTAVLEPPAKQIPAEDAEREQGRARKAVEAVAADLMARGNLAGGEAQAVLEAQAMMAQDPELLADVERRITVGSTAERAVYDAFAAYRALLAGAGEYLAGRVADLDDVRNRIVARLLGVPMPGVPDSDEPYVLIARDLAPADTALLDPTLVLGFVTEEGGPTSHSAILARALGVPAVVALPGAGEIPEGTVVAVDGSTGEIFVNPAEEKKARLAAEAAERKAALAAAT

| Molecule | D (translational diffusion coefficient) [1] | Rh (in parentheses, from DOSY) [1] | [TFE]1/2 [3] | m [3] | percentage of helical population (in parentheses) [3] | ∆G^water [3] | [Θ]^222 (value in parentheses) [4] | Helicity (%) [4] | ΔH, Rsd^ec ([5]; ITC, 25 °C) | MIC [6] | also measured |
| --- | --- | --- | --- | --- | --- | --- | --- | --- | --- | --- | --- |
| Ac-GWAEGLHARAASAAARAATATG-NH2 [P18A/I21A/F22A/V23A] | 1.7 ± 0.1 cm^2 s^−1 × 10^6 | 12 ± 2 Å | 21 ± 1 % (v/v) | 157 ± 26 cal/mol (% (v/v)) | 0.24% | 3.3 ± 0.6 kcal/mol | −7305.73 deg cm^2 dmol^−1 | 18.4% | 4.3 ± 0.5 kcal/mol | > 400 µM | Kd ([2]; fluorescence titration, 3 µM protein, 0-30 µM peptide, 25 °C, 50 mM Tris pH 7.0, uncertainties are fitting errors, repeated three times, read-out: Kd, Rsd^ec (fluorescence titration, value in parentheses) (converted)): 10 µM; Kd ([5]; ITC, 25 °C, 50 mM Tris pH 7.0, single binding-site model, read-out: Kd, Rsd^ec (ITC)): 5 ± 0.7 µM; Kd ([7]; fluorescence titration, 3 µM protein, 0-30 µM peptide, 25 °C, 50 mM Tris pH 7.0, uncertainties are fitting errors, repeated three times, read-out: Kd, EIN^sc (fluorescence titration, value in parentheses)): 11 µM |
| Ac-GWAEGLHARPASAFVRAATATG-NH2 [Peptide I21A] | 1.9 ± 0.1 cm^2 s^−1 × 10^6 | 11 ± 1 Å | 23.8 ± 0.4 % (v/v) | 197 ± 20 cal/mol (% (v/v)) | 0.02% | 4.7 ± 0.5 kcal/mol | −681.95 deg cm^2 dmol^−1 | 1.7% | 1.0 ± 0.4 kcal/mol | > 400 µM | Kd [2]: 8 µM; Kd [5]: 2.6 ± 0.4 µM |
| Ac-GWAEGLHARPASIFARAATATG-NH2 [Peptide V23A] | 2.0 ± 0.1 cm^2 s^−1 × 10^6 | 11 ± 1 Å | 22.7 ± 0.3 % (v/v) | 217 ± 23 cal/mol (% (v/v)) | 0.01% | 4.9 ± 0.5 kcal/mol | −988.51 deg cm^2 dmol^−1 | 2.5% | -0.8 ± 0.5 kcal/mol | > 400 µM | Kd [8]: 9.1 ± 0.9 µM; ΔH, EIN^sc ([8]; ITC, 25 °C, 50 mM Tris pH 7.0): -6.6 ± 0.5 kcal/mol; Kd [7]: 9 µM |
| HPr 9-30 (from UniProt O50515) |  |  |  |  |  |  |  |  |  |  | Kd [9]: 230 µM; Kd [10]: 2.5 µM |
| HPr (from UniProt O50515) |  |  |  |  |  |  |  |  |  |  | Kd [11]: 12 µM; Kd [10]: 2 µM |
| B1 |  |  |  |  |  |  |  |  |  |  | Kd [12]: 0.00887 µM |
| B2 |  |  |  |  |  |  |  |  |  |  | Kd [13]: 11 µM; Kd [14]: 5.9 ± 0.7 µM; dH [14]: 1.1 ± 0.5 kcal/mol |

Source: article PMC8509676, “Residual Helicity at the Active Site of the Histidine Phosphocarrier, HPr, Modulates Binding Affinity to Its Natural Partners” (International Journal of Molecular Sciences, 2021)
